Experimental data: US20250154686A1, “COMPOUND LIBRARY” (CHUGAI SEIYAKU KABUSHIKI KAISHA, priority 2021, published 2025)

Molecular target: T1, Bcl-2 protein (Recombinant Human Bcl-2 Protein) (Homo sapiens, UniProt P10415)
T1 construct: purchased Novus Biologicals NBP2-34889
Assay: AS-MS evaluation of binding of the Example 4 mixture library (1200 compounds/well) to Bcl-2, ASMS ratio (%)
Conditions: AS-MS, Example 4 mixture library; for ASMS ratio (%) n = 1: Bcl-2, replicate n = 1; for ASMS ratio (%) n = 2: Bcl-2, replicate n = 2
How it was run: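 Binding is read as an ASMS ratio from reverse-phase LC/MS peak data. Samples: 1200 compounds at 20 nM each with 20 μM Bcl-2, 1 h at 23 °C in the dark, then P-2 SEC and organic-solvent extraction; references lacked protein, with and without SEC.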

T1 sequence (P10415 whole entry): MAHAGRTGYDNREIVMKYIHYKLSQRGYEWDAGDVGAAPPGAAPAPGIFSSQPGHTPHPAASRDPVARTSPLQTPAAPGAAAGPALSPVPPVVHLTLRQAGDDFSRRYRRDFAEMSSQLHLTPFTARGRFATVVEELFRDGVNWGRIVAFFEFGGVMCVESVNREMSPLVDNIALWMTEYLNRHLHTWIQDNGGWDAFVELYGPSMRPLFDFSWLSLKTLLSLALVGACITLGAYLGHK

Compound | ASMS ratio (%) n = 1 [%] | ASMS ratio (%) n = 2 [%]
CCOc1cncc(-c2ccc(CN3CCN(c4ccc(C(=O)NS(=O)(=O)c5ccc(NCCSc6ccccc6)c(C(F)(F)F)c5)nn4)CC3)cc2C)c1 [Compound B2R074-01, 6-[4-[[4-(5-ethoxypyridin-3-yl)-3-methylphenyl]methyl]piperazin-1-yl]-N-[4-(2-phenylsulfanylethylamino)-3-(trifluoromethyl)phenyl]sulfonylpyridazine-3-carboxamide] | 22.4 | 25.
CCOc1cccc(-c2ccc(CN3CCN(c4ccc(C(=O)NS(=O)(=O)c5ccc(NCCSc6ccccc6)c(C(F)(F)F)c5)nn4)CC3)c(CC)c2)c1 [Compound B2R075-01, 6-[4-[[4-(3-Ethoxyphenyl)-2-ethylphenyl]methyl]piperazin-1-yl]-N-[4-(2-phenylsulfanylethylamino)-3-(trifluoromethyl)phenyl]sulfonylpyridazine-3-carboxamide] | 8.6 | 0.0
CCOc1cncc(-c2ccc(CN3CCN(c4ccc(C(=O)NS(=O)(=O)c5ccc(NCCSc6ccccc6)c(C(F)(F)F)c5)nn4)CC3)c(CC)c2)c1 [Compound B2R076-01] | 3.9 | 19.7
CCOc1cccc(-c2ccc(CN3CCN(c4ccc(C(=O)NS(=O)(=O)c5ccc(NCCSc6ccccc6)c(C(F)(F)F)c5)nn4)CC3)cc2F)c1 [Compound B2R077-01, 6-[4-[[4-(3-Ethoxyphenyl)-3-fluorophenyl]methyl]piperazin-1-yl]-N-[4-(2-phenylsulfanylethylamino)-3-(trifluoromethyl)phenyl]sulfonylpyridazine-3-carboxamide] | 0.0 | 0.0
CCOc1cncc(-c2ccc(CN3CCN(c4ccc(C(=O)NS(=O)(=O)c5ccc(NCCSc6ccccc6)c(C(F)(F)F)c5)nn4)CC3)cc2F)c1 [Compound B2R078-01, 6-[4-[[4-(5-Ethoxypyridin-3-yl)-3-fluorophenyl]methyl]piperazin-1-yl]-N-[4-(2-phenylsulfanylethylamino)-3-(trifluoromethyl)phenyl]sulfonylpyridazine-3-carboxamide] | 15.8 | 11.7
CCOc1cncc(-c2ccc(CN3CCN(c4ccc(C(=O)NS(=O)(=O)c5ccc(NCCSc6ccccc6)c(C(F)(F)F)c5)nn4)CC3)c(OC)c2)c1 [Compound B2R080-01, 6-[4-[[4-(5-Ethoxypyridin-3-yl)-2-methoxyphenyl]methyl]piperazin-1-yl]-N-[4-(2-phenylsulfanylethylamino)-3-(trifluoromethyl)phenyl]sulfonylpyridazine-3-carboxamide] | 16.7 | 21.2
CCOc1cccc(-c2cc(CN3CCN(c4ccc(C(=O)NS(=O)(=O)c5ccc(NCCSc6ccccc6)c(C(F)(F)F)c5)nn4)CC3)cc(OCC)c2)c1 [Compound B2R081-01] | 21.1 | −8.8
CCOc1cncc(-c2cc(CN3CCN(c4ccc(C(=O)NS(=O)(=O)c5ccc(NCCSc6ccccc6)c(C(F)(F)F)c5)nn4)CC3)cc(OCC)c2)c1 [Compound B2R082-01] | 0.0 | 0.0
CCOc1cccc(-c2cc(CN3CCN(c4ccc(C(=O)NS(=O)(=O)c5ccc(NCCSc6ccccc6)c(C(F)(F)F)c5)nn4)CC3)cc(OC(C)C)c2)c1 [Compound B2R083-01, 6-[4-[[3-(3-Ethoxyphenyl)-5-propan-2-yloxyphenyl]methyl]piperazin-1-yl]-N-[4-(2-phenylsulfanylethylamino)-3-(trifluoromethyl)phenyl]sulfonylpyridazine-3-carboxamide] | 31.9 | −11.1
CCOc1cncc(-c2cc(OC)c(CN3CCN(c4ccc(C(=O)NS(=O)(=O)c5ccc(NCCSc6ccccc6)c(C(F)(F)F)c5)nn4)CC3)c(OC)c2)c1 [Compound B2R086-01, 6-[4-[[4-(5-Ethoxypyridin-3-yl)-2,6-dimethoxyphenyl]methyl]piperazin-1-yl]-N-[4-(2-phenylsulfanylethylamino)-3-(trifluoromethyl)phenyl]sulfonylpyridazine-3-carboxamide] | 0.0 | 0.0
CCOc1cccc(-c2cc(CN3CCN(c4ccc(C(=O)NS(=O)(=O)c5ccc(NCCSc6ccccc6)c(C(F)(F)F)c5)nn4)CC3)cc(C(F)(F)F)c2)c1 [Compound B2R087-01] | 3.8 | 7.1
CCOc1cncc(-c2cc(CN3CCN(c4ccc(C(=O)NS(=O)(=O)c5ccc(NCCSc6ccccc6)c(C(F)(F)F)c5)nn4)CC3)cc(C(F)(F)F)c2)c1 [Compound B2R088-01, 6-[4-[[3-(5-Ethoxypyridin-3-yl)-5-(trifluoromethyl)phenyl]methyl]piperazin-1-yl]-N-[4-(2-phenylsulfanylethylamino)-3-(trifluoromethyl)phenyl]sulfonylpyridazine-3-carboxamide] | 35.3 | 13.1
CCOc1cccc(-c2cc(CN3CCN(c4ccc(C(=O)NS(=O)(=O)c5ccc(NCCSc6ccccc6)c(C(F)(F)F)c5)nn4)CC3)cc(OC(F)(F)F)c2)c1 [Compound B2R089-01, 6-[4-[[3-(3-Ethoxyphenyl)-5-(trifluoromethoxy)phenyl]methyl]piperazin-1-yl]-N-[4-(2-phenylsulfanylethylamino)-3-(trifluoromethyl)phenyl]sulfonylpyridazine-3-carboxamide] | 3.4 | −9.2
CCOc1cncc(-c2cc(CN3CCN(c4ccc(C(=O)NS(=O)(=O)c5ccc(NCCSc6ccccc6)c(C(F)(F)F)c5)nn4)CC3)cc(OC(F)(F)F)c2)c1 [Compound B2R090-01, 6-[4-[[3-(5-Ethoxypyridin-3-yl)-5-(trifluoromethoxy)phenyl]methyl]piperazin-1-yl]-N-[4-(2-phenylsulfanylethylamino)-3-(trifluoromethyl)phenyl]sulfonylpyridazine-3-carboxamide] | 22.4 | 5.3
CCOc1cccc(-c2ccc(CN3CCN(c4ccc(C(=O)NS(=O)(=O)c5ccc(NCCSc6ccccc6)c(C(F)(F)F)c5)nn4)CC3)c3ccccc23)c1 [Compound B2R091-01, 6-[4-[[4-(3-Ethoxyphenyl)naphthalen-1-yl]methyl]piperazin-1-yl]-N-[4-(2-phenylsulfanylethylamino)-3-(trifluoromethyl)phenyl]sulfonylpyridazine-3-carboxamide] | −3.5 | 1.8
CCOc1cncc(-c2ccc(CN3CCN(c4ccc(C(=O)NS(=O)(=O)c5ccc(NCCSc6ccccc6)c(C(F)(F)F)c5)nn4)CC3)c3ccccc23)c1 [Compound B2R092-01, 6-[4-[[4-(5-Ethoxypyridin-3-yl)naphthalen-1-yl]methyl]piperazin-1-yl]-N-[4-(2-phenylsulfanylethylamino)-3-(trifluoromethyl)phenyl]sulfonylpyridazine-3-carboxamide] | 16.0 | −1.3
CCOc1cccc(-c2csc(CN3CCN(c4ccc(C(=O)NS(=O)(=O)c5ccc(NCCSc6ccccc6)c(C(F)(F)F)c5)nn4)CC3)c2)c1 [Compound B2R093-01, 6-[4-[[4-(3-Ethoxyphenyl)thiophen-2-yl]methyl]piperazin-1-yl]-N-[4-(2-phenylsulfanylethylamino)-3-(trifluoromethyl)phenyl]sulfonylpyridazine-3-carboxamide] | 56.5 | 0.0
CCOc1cncc(-c2csc(CN3CCN(c4ccc(C(=O)NS(=O)(=O)c5ccc(NCCSc6ccccc6)c(C(F)(F)F)c5)nn4)CC3)c2)c1 [Compound B2R094-01, 6-[4-[[4-(5-Ethoxypyridin-3-yl)thiophen-2-yl]methyl]piperazin-1-yl]-N-[4-(2-phenylsulfanylethylamino)-3-(trifluoromethyl)phenyl]sulfonylpyridazine-3-carboxamide] | 18.8 | 11.9
CCOc1cccc(C#Cc2ccccc2CN2CCN(c3ccc(C(=O)NS(=O)(=O)c4ccc(NCCSc5ccccc5)c(C(F)(F)F)c4)nn3)CC2)c1 [Compound B2R095-01, 6-[4-[[2-[2-(3-Ethoxyphenyl)ethynyl]phenyl]methyl]piperazin-1-yl]-N-[4-(2-phenylsulfanylethylamino)-3-(trifluoromethyl)phenyl]sulfonylpyridazine-3-carboxamide] | 42.2 | 5.5
CCOc1cccc(-c2ccc(C(C)N3CCN(c4ccc(C(=O)NS(=O)(=O)c5ccc(NCCSc6ccccc6)c(C(F)(F)F)c5)cc4)CC3)cc2)c1 (centres unmarked) [Compound B2R097-01, 4-[4-[1-[4-(3-Ethoxyphenyl)phenyl]ethyl]piperazin-1-yl]-N-[4-(2-phenylsulfanylethylamino)-3-(trifluoromethyl)phenyl]sulfonylbenzamide] | 6.6 | −7.8
CCOc1cncc(-c2ccc(C(C)N3CCN(c4ccc(C(=O)NS(=O)(=O)c5ccc(NCCSc6ccccc6)c(C(F)(F)F)c5)cc4)CC3)cc2)c1 (centres unmarked) [Compound B2R098-01, 4-[4-[1-[4-(5-Ethoxypyridin-3-yl)phenyl]ethyl]piperazin-1-yl]-N-[4-(2-phenylsulfanylethylamino)-3-(trifluoromethyl)phenyl]sulfonylbenzamide] | 9.2 | 7.5
CCOc1cccc(-c2ccc(C(C)N3CCN(c4ccc(C(=O)NS(=O)(=O)c5ccc(NCCSc6ccccc6)c(C(F)(F)F)c5)cc4)CC3)c(F)c2)c1 (centres unmarked) [Compound B2R099-01, 4-[4-[1-[4-(3-Ethoxyphenyl)-2-fluorophenyl]ethyl]piperazin-1-yl]-N-[4-(2-phenylsulfanylethylamino)-3-(trifluoromethyl)phenyl]sulfonylbenzamide] | −12.6 | −7.5
